Measured values published in US10501493B2, “Broad spectrum antibiotics” (priority 2011, dated 2019).
Converted amounts (≈) assume the structure as drawn. Where two headings read alike, the source gives them in different places.

Columns and labels:
[1] = tested on: C. glutamicum DSM 44475; experiment: In vitro antimicrobial activity, MIC by broth micro-dilution; assay type: cell-based; settings: Corynebacterium glutamicum, DSM44475, read-out: MIC
[2] = tested on: E. coli MIG1655 LepB(P84L); experiment: as above; assay type: cell-based; settings: Escherichia coli
Method in brief: (§1)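 CLSI broth micro-dilution MIC against two-fold serial compound dilutions. Inoculum came from colonies grown 24 h at 35° C. or 28° C., suspended in cation-adjusted Mueller Hinton broth at 1*10^7 CFU/ml, of which 5 μl was added per 100 μl well. LepB(P84L) is a proline-mutant SPase strain with heightened arylomycin susceptibility.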

[3] = tested on: P. aeruginosa PA01 LepB(P84L); experiment: as above; assay type: cell-based; settings: Pseudomonas aeruginosa
Method in brief: as §1

[4] = tested on: S. agalactiae ATCC 13813; experiment: as above; assay type: cell-based; settings: Streptococcus agalactiae, ATCC13813, read-out: MIC
[5] = tested on: S. agalactiae COH-1; experiment: as above; assay type: cell-based; settings: Streptococcus agalactiae, COH1
[6] = tested on: S. aureus ATCC 29213; experiment: as above; assay type: cell-based; settings: Staphylococcus aureus, ATCC29213, read-out: MIC
[7] = tested on: S. aureus NCTC-8325 SpsB(P295); experiment: as above; assay type: cell-based; settings: Staphylococcus aureus, NCTC8325
[8] = tested on: S. epidermidis ATCC 12228; experiment: as above; assay type: cell-based; settings: Staphylococcus epidermidis, ATCC12228, read-out: MIC
[9] = tested on: S. epidermidis RP62A SpsIB(S29P); experiment: as above; assay type: cell-based; settings: Staphylococcus epidermidis
[10] = tested on: S. epidermidis RP62A SpsIB(S31P); experiment: as above; assay type: cell-based; settings: Staphylococcus epidermidis
[11] = tested on: S. epidermidis RP62A; experiment: as above; assay type: cell-based; settings: Staphylococcus epidermidis; S. epidermidis RP62A; read-out: MIC
[12] = tested on: S. pneumoniae D39; experiment: as above; assay type: cell-based; settings: Streptococcus pneumoniae; S. pneumoniae D39; read-out: MIC
[13] = tested on: S. pneumoniae R800; experiment: as above; assay type: cell-based; settings: Streptococcus pneumoniae, read-out: MIC
Method in brief: as §1

[14] = tested on: S. pyogenes ATCC 19615; experiment: as above; assay type: cell-based; settings: Streptococcus pyogenes, ATCC19615, read-out: MIC
[15] = tested on: S. pyogenes M15448; experiment: as above; assay type: cell-based; settings: Streptococcus pyogenes
Method in brief: as §1

[16] = molecular target: T1, E. coli SPase (Escherichia coli, UniProt P00803); experiment: Steady state binding constant (Kd) determination by fluorescence increase
T1 construct: Full length His-tagged E. coli SPase proteins were expressed in E. coli BL21(DE3); His-tag; made in house; host or cells: E. coli BL21(DE3)
Method: (§2) Full length His-tagged E. coli SPase proteins were expressed in E. coli BL21(DE3) containing the plasmid pET23-lepB, P. A. Smith et al. Chem Biol 2010, 1223-1231. Briefly, saturated overnight cultures grown in 20 ml of Luria-Bertani medium supplemented with ampicillin were subcultures into 1.5 L of Luria-Bertani, and shaken at 37° C. until an optical density at 600 nm of 0.4-0.5 was achieved. Protein expression was induced with Isopropyl β-D-1-thiogalactopyranoside (ITPG) at a final concentration of […], and purified using nickel affinity chromatography. Full length His-tagged S. aureus SPase protein was expressed similarly from E. coli BL21(DE3) containing the plasmid pCDF1-SaSpsB or pCDF1-SaSpsB(P29S) and purified similarly to the E. coli protein with the following exceptions. SPase protein was solubilized using 300 mM NaCl, 20 mM Tris pH 8.06, 5 mM Imidazole, 10% glycerol, 1% Triton X-100, prior to purification in Ni-NTA Superflow resin and resin bound protein was washed in a similar buffer containing 1% Elugent in place of Triton X-100 prior to protein eluted in wash buffer supplemented with 300 mM imidazole. Protein purify was judged to exceed 95% by visual inspection of SDS-PAGE followed by Comassie staining. All protein concentrations were determined by BCA assay.
(§3) Steady state binding constants (Kds) of compounds were determined by measuring an increase in fluorescence (λex=280 nm, λem=405 nm) that occurs upon binding to E. coli or S. aureus SPase protein. Two-fold serial dilutions of compounds were prepared in 100% DMSO, and compounds were diluted into binding buffer consisting of 100 mM NaCl, 20 mM Tris-HCl pH 7.4, 1 mM EDTA, 1% n-octyl-3-glucopyranoside (Anatrace), and 10% glycerol, with the final DMSO concentration equal to 1%. 70 μl of the resulting solutions containing various concentrations of compound in binding buffer were aliquoted into triplicate wells of a black polystyrene 384-well plate. 5 μl of blank solution or E. coli or S. aureus protein at concentrations of 750 or 3750 nM respectively, were added to each set of wells for a given inhibitor concentration. Plates were incubated for 14 hours and fluorescence read on an EnVision Multilable plate reader (Perkin Elmer™). Differences in fluorescence values between wells with and without protein were determined and background corrected for protein auto fluorescence. The corrected fluorescence difference data was fit to the quadratic equilibrium binding curve using the non-linear regression analysis software Solver (Frontline Systems®) run in Excel 2010, (Microsoft®), using experimentally determined quantum efficiency constants to convert fluorescence into nanomoles of protein/compound complex.

[17] = molecular target: T2, S. aureus SPase (Staphylococcus aureus, UniProt P0A070); experiment: as above
T2 construct: Full length His-tagged S. aureus SPase protein was expressed similarly; His-tag; made in house; host or cells: E. coli BL21(DE3)
Method: as §2, §3

[18] = tested on: R. equi DSM 6939; experiment: In vitro antimicrobial activity, MIC by broth micro-dilution; assay type: cell-based; settings: Rhodococcus (subgen. Prescottella) equi, DSM6939, read-out: MIC
Method in brief: as §1

[19] = S. agalactiae COH-1, read-out: MIC
[20] = S. pyogenes M15448, read-out: MIC

Structure (SMILES)	MIC [1] [µg/mL]	MIC [2] [µg/mL]	MIC [3] [µg/mL]	MIC [4] [µg/mL]	MIC [5] [µg/mL]	MIC [6] [µg/mL]	MIC [7] [µg/mL]	MIC [8] [µg/mL]	MIC [9] [µg/mL]	MIC [10] [µg/mL]	MIC [11] [µg/mL]	MIC [12] [µg/mL]	MIC [13] [µg/mL]	MIC [14] [µg/mL]	MIC ([15]; M15448) [µg/mL]	Kd [16] [µM]	Kd [17] [µM]	MIC [18] [µg/mL]	MIC [5, 19] [µg/mL]	MIC [15, 20] [µg/mL]
CCCCCCCCCCCCCCCC(=O)N(C)[C@H](CO)C(=O)N[C@H](C)C(=O)NCC(=O)N(C)[C@@H]1C(=O)N[C@@H](C)C(=O)N[C@H](C(=O)NS(C)(=O)=O)Cc2ccc(O)c(c2)-c2cc1ccc2O [Compound 22]	8 (≈ 8.35 µM)	16 (≈ 16.7 µM)	> 64	32 (≈ 33.4 µM)	> 64	> 64	> 64	> 64	> 64	> 64	2 (≈ 2.09 µM)	16 (≈ 16.7 µM)	16 (≈ 16.7 µM)	16 (≈ 16.7 µM)	16 (≈ 16.7 µM)	1	19			
CCCCCCCCCCCCCCCC(=O)N(C)[C@H](CO)C(=O)N[C@H](C)C(=O)NCC(=O)N(C)[C@@H]1C(=O)N[C@@H](C)C(=O)N[C@H](C(=O)N[C@H](C)C(=O)C(=O)N(C)C)Cc2ccc(O)c(c2)-c2cc1ccc2O [Compound 29]	32 (≈ 31.8 µM)	16 (≈ 15.9 µM)	> 64	32 (≈ 31.8 µM)		> 64	> 64	32 (≈ 31.8 µM)	> 64	> 64	8 (≈ 7.94 µM)	16 (≈ 15.9 µM)	32 (≈ 31.8 µM)	16 (≈ 15.9 µM)				> 64	64 (≈ 63.5 µM)	64 (≈ 63.5 µM)
CCCCCCCCCCCCCCCC(=O)N(C)[C@H](CO)C(=O)N[C@H](C)C(=O)NCC(=O)N(C)[C@@H]1C(=O)N[C@@H](C)C(=O)N[C@H](C(=O)N(C)C)Cc2ccc(O)c(c2)-c2cc1ccc2O [Compound 13]		16 (≈ 17.6 µM)	> 64						> 64	> 64	64 (≈ 70.5 µM)	> 64				2	> 100			
CCCCCCCCCCCCCCCC(=O)N(C)[C@H](CO)C(=O)N[C@H](C)C(=O)NCC(=O)N(C)[C@@H]1C(=O)N[C@@H](C)C(=O)N[C@H](C(=O)NCC(=O)N2CCCC2C(N)=O)Cc2ccc(O)c(c2)-c2cc1ccc2O (stereo partly drawn) [Compound 27]	32 (≈ 30.9 µM)	8 (≈ 7.73 µM)	> 64	32 (≈ 30.9 µM)		> 64	> 64	32 (≈ 30.9 µM)	> 64	> 64	8 (≈ 7.73 µM)	16 (≈ 15.5 µM)	32 (≈ 30.9 µM)	32 (≈ 30.9 µM)				> 64	32 (≈ 30.9 µM)	32 (≈ 30.9 µM)
CCCCCCCCCCCCCCCC(=O)N(C)[C@H](CO)C(=O)N[C@H](C)C(=O)NCC(=O)N(C)[C@@H]1C(=O)N[C@@H](C)C(=O)N[C@H](C(=O)NC)Cc2ccc(O)c(c2)-c2cc1ccc2O [Compound 12]		8 (≈ 8.95 µM)	> 64						64 (≈ 71.6 µM)	> 64	2 (≈ 2.24 µM)	> 64				0.24	0.6			
CCCCCCCCCCCCCCCC(=O)N(C)[C@H](CO)C(=O)N[C@H](C)C(=O)NCC(=O)N(C)[C@@H]1C(=O)N[C@@H](C)C(=O)N[C@H](C(=O)N[C@@H](C)C(=O)C(=O)N(C)C)Cc2ccc(O)c(c2)-c2cc1ccc2O [Compound 28]	32 (≈ 31.8 µM)	8 (≈ 7.94 µM)	> 64	16 (≈ 15.9 µM)		> 64	32 (≈ 31.8 µM)	16 (≈ 15.9 µM)	> 64	> 64	4 (≈ 3.97 µM)	8 (≈ 7.94 µM)	16 (≈ 15.9 µM)	16 (≈ 15.9 µM)				> 64	32 (≈ 31.8 µM)	32 (≈ 31.8 µM)
CCCCCCCCCCCCCCCC(=O)N(C)[C@H](CO)C(=O)N[C@H](C)C(=O)NCC(=O)N(C)[C@@H]1C(=O)N[C@@H](C)C(=O)N[C@H](C(N)=O)Cc2ccc(O)c(c2)-c2cc1ccc2O [Compound 11]		4 (≈ 4.54 µM)	> 64				32 (≈ 36.4 µM)		> 64	> 64	2 (≈ 2.27 µM)	64 (≈ 72.7 µM)				0.1	2.1			
CCCCCCCCCCCCCCCC(=O)N(C)[C@H](CO)C(=O)N[C@H](C)C(=O)NCC(=O)N(C)[C@@H]1C(=O)N[C@@H](C)C(=O)N[C@H](C(=O)N[C@@H](C)C(=O)N2CCC[C@H]2C(=O)O)Cc2ccc(O)c(c2)-c2cc1ccc2O [Compound 25]	64 (≈ 61 µM)	8 (≈ 7.62 µM)	> 64	8 (≈ 7.62 µM)		64 (≈ 61 µM)	> 64	16 (≈ 15.2 µM)	64 (≈ 61 µM)	> 64	4 (≈ 3.81 µM)	8 (≈ 7.62 µM)	8 (≈ 7.62 µM)	16 (≈ 15.2 µM)				> 64	> 64	16 (≈ 15.2 µM)
CCCCCCCCCCCCCCCC(=O)N(C)[C@H](CO)C(=O)N[C@H](C)C(=O)NCC(=O)N(C)[C@@H]1C(=O)N[C@@H](C)C(=O)N[C@H](C(=O)NCC(=O)N2CCC[C@H]2C(=O)O)Cc2ccc(O)c(c2)-c2cc1ccc2O [Compound 31]	> 64	16 (≈ 15.5 µM)	> 64	8 (≈ 7.73 µM)		> 64	> 64	32 (≈ 30.9 µM)	> 64	> 64	8 (≈ 7.73 µM)	4 (≈ 3.86 µM)	8 (≈ 7.73 µM)	8 (≈ 7.73 µM)				> 64	> 64	16 (≈ 15.5 µM)
CCCCCCCCCCCCCCCC(=O)N(C)[C@H](CO)C(=O)N[C@H](C)C(=O)NCC(=O)N(C)[C@@H]1C(=O)N[C@@H](C)C(=O)N[C@H](C(=O)NCC(N)=O)Cc2ccc(O)c(c2)-c2cc1ccc2O [Compound 26]	32 (≈ 34.1 µM)	8 (≈ 8.54 µM)	> 64	16 (≈ 17.1 µM)		> 64	> 64	32 (≈ 34.1 µM)	> 64	> 64	4 (≈ 4.27 µM)	8 (≈ 8.54 µM)	16 (≈ 17.1 µM)	8 (≈ 8.54 µM)				64 (≈ 68.3 µM)	> 64	> 64
CCCCCCCCCCCCCCCC(=O)N(C)[C@H](CO)C(=O)N[C@H](C)C(=O)NCC(=O)N(C)[C@@H]1C(=O)N[C@@H](C)C(=O)N[C@H](C(=O)N[C@@H](C)C(=O)N2CCCC2C(N)=O)Cc2ccc(O)c(c2)-c2cc1ccc2O (stereo partly drawn) [Compound 14]		16 (≈ 15.3 µM)	> 64				8 (≈ 7.63 µM)		> 64	> 64	2 (≈ 1.91 µM)	8 (≈ 7.63 µM)				2.8	0.6			
